Entries after “also recorded” stand apart in the source; their conditions may differ.
How the values were obtained:
BSA (antigen) = experiment: Antigen recognizing ability by ELISA (rabbit-derived anti-BSA IgG antibody); type: binding; conditions: rabbit-derived anti-BSA IgG antibody (polyclonal) modified by MTG
Experimental: A study was made on samples that were prepared by introducing a fluorescent substrate (FITC-ε-Acp-QG or FITC-β-Ala-QG) into a rabbit-derived anti-BSA IgG antibody (polyclonal) under the same conditions as in Experiment 2-2.
ELISA was performed by the following procedure (FIG. 3-5). • 1) To a Black Plate, 5 mg/ml of BSA (antigen) was added in an amount of 150 µl/well and left to stand overnight at 37° C. • 2) The product of 1) was washed with PBST five times. • 3) Modified anti-BSA IgG antibodies were added in an amount of 60 µl/well and left to stand at room temperature for 5 hours. • 4) The product of 3) was washed with PBST five times. • 5) Examination was made with a fluorescent imager. • 6) A […] sample of AP-labeled anti-rabbit IgG IgG antibodies were added in an amount of 150 µl/well and left to stand at 37° C. for 3 hours. • 7) The product of 6) was washed with TBST five times. • 8) The substrate was added and 10 minutes later, fluorescence derived from the enzymatic reaction was examined with a fluorescent imager.

MTG [1] = target: T1, MTG (Streptomyces mobaraensis, UniProt P81453); experiment: MTG-catalyzed introduction of fluorescent substrates into NK6-AP (SDS-PAGE, fluorescent imager); type: biochemical, microbial
T1 construct: purchased AJINOMOTO (supplied as a gift)
T1 sequence (P81453 77-407): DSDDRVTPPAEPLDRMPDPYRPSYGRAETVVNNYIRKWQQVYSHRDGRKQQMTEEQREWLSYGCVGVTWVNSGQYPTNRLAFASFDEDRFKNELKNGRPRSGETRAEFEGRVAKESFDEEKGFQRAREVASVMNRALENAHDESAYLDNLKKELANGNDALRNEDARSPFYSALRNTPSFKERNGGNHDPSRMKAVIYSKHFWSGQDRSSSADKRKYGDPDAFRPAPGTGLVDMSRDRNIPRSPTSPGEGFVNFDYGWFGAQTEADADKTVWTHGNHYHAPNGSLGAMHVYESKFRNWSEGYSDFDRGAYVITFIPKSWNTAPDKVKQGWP
Experimental: To perform a binding reaction, the fluorescent substrate (FITC-ε-Acp-QG, FITC-β-Ala-QG, Flc-QG, TR-β-Ala-QG or Dns-ε-Acp-QG), NK6-AP and MTG were added to 10 mM Tris-HCl (pH 8) to give respective final concentrations of 1 mM, 0.5 mg/ml and 1 U/ml and they were thoroughly agitated and the resulting solution was left to stand overnight at 4° C. For the purpose of comparison, an MTG-free sample was prepared.
After the reaction, the samples were subjected to SDS-polyacrylamide gel electrophoresis (SDS-PAGE). The gel from SDS-PAGE was examined with a fluorescent imager before it was stained with Coomassie Brilliant Blue (CBB) in solution. For the sample containing Dns-ε-Acp-QG, examination was made with a transilluminator.
(§1) A study was made using FITC-β-Ala-QG as a fluorescent substrate. The reaction conditions for introducing FITC-β-Ala-QG into NK6-AP were as follows: FITC-β-Ala-QG, NK6-AP and MTG were added to 10 mM Tris-HCl (pH 8) to give respective final concentrations of 0.1 mM, 0.5 mg/ml and 0.1 U/ml and they were thoroughly agitated at 4° C. for 0-5 hours. To trace the binding, the gel from SDS-PAGE was analyzed by a fluorescent imager.
as §1, with “1-1000 μM,” for “0.1 mM,”, “15 minutes. Tracing on” for “0-5 hours. To trace”, “sample after” for “binding,”, “reaction” for “gel from SDS-PAGE”, “performed” for “analyzed”, “the same procedure as in Experiment 2-4.” for “a fluorescent imager.”
Dns-β-Ala-QG-biotin, NK6-AP and MTG were added to 20 mM Tris-HCl (pH 8) to give respective final concentrations of 100 μM, 0.5 mg/ml, and 1 U/ml. For the purpose of comparison, an MTG-free sample was prepared. The ingredients were thoroughly agitated and the resulting solution was left to stand overnight at 4° C. for reaction.
After the reaction, the samples were subjected to SDS-polyacrylamide gel electrophoresis (SDS-PAGE). The gel from SDS-PAGE was examined with a transilluminator before it was stained with Coomassie Brilliant Blue (CBB) in solution.
To a 50 mM buffer whose pH was varied over the range of from 5 to 9, FITC-β-Ala-QG, NK6-AP and MTG were added to give respective final concentrations of 0.1 mM, 0.5 mg/ml, and 0.1 U/ml. These ingredients were well stirred and left to stand at 4° C. for reaction. After 6-hr or 15-minute reaction, the sample was mixed with a sample buffer and heated at 95° C. for 15 minutes to stop the reaction. Thereafter, SDS-polyacrylamide gel electrophoresis (SDS-PAGE) was applied. The gel from SDS-PAGE was stained with Coomassie Brilliant Blue (CBB) and observed with a fluorescent imager.
(§2) To 50 mM Tris-HCl (pH 8), FITC-β-Ala-QG, NK6-AP and MTG were added to give respective final concentrations of 0.1 mM, 0.5 mg/ml, and 0.001-1 U/ml. These ingredients were well stirred and left to stand at 4° C. for reaction. The reaction was stopped and evaluation was made by the same procedures as in Experiment 2-2.
as §2, with “FITC-β-Ala-QG-alkyne,” for “FITC-β-Ala-QG,”, “0.1” for “0.001-1”, “For the purpose of comparison, a MTG-free sample was also prepared. Both samples” for “These ingredients”

MTG [2] = target: T1, MTG; experiment: MTG-catalyzed binding reaction of fluorescent substrate with β-casein; type: biochemical, microbial; conditions: substrate 1 mM, β-casein 0.5 mg/ml, MTG 1 U/ml, phosphate buffer pH 7, overnight 27° C.
Experimental: To perform a binding reaction, FITC-β-Ala-QG, β-casein and GTG were added to 50 mM HEPES (5 mM NaCl, 10 mM CaCl2, pH 7.4) to give respective final concentrations of 1 mM, 0.5 mg/ml and 0.2 U/ml and the resulting mixture was left to stand overnight at 27° C. Two comparative samples were prepared; one was a GTG-free sample and the other was prepared by performing an MTG-catalyzed reaction. For the MTG-catalyzed binding reaction, FITC-β-Ala-QG, β-casein and MTG were added to a 10 mM phosphate buffer (pH 7) to give respective final concentrations of 1 mM, 0.5 mg/ml and 1 U/ml and the resulting mixture was left to stand overnight at 27° C. Tracing on the sample after the reaction was performed by the same procedure as in Experiment 2-2.

[3] = NK6-AP 0.5 mg/ml, MTG 0.1 U/ml, pH 8, 4° C., 15 minutes

NC(=O)CCC(NC(=O)CCNC(=S)Nc1ccc(-c2c3ccc(=O)cc-3oc3cc(O)ccc23)c(C(=O)O)c1)C(=O)NCC(=O)O (stereo not drawn) [FITC-β-Ala-QG]
Antigen recognizing ability of modified antibody (BSA (antigen)): maintained its antigen recognizing ability
pH range with comparable levels of fluorescent intensity (reaction saturated) (MTG [1]; 6-hr reaction, pH 5 to 9, substrate 0.1 mM, MTG 0.1 U/ml, 4° C.): 5-8
pH of rapid introduction into NK6-AP (MTG [1]; 15-min reaction, pH 5 to 9, substrate 0.1 mM, MTG 0.1 U/ml, 4° C.): rapid introduction was achieved at pH values of 6 and 8
Maximum substrate concentration at which reaction progressed (MTG [1]; [3]): 1 mM
Minimum substrate concentration at which reaction progressed and detection was possible (MTG [1]; [3]): 1 µM
Degree of introduction into NK6-AP at 1 U MTG (MTG [1]; NK6-AP, substrate 0.1 mM, pH 8, 4° C.): did not drop
MTG concentration at which an adequately rapid reaction proceeded (MTG [1]; NK6-AP, substrate 0.1 mM, pH 8, 4° C., MTG 0.001-1 U/ml): 0.1 U
Reactivity of MTG for fluorescent substrate (introduction into NK6-AP) (MTG [1]; substrate 1 mM, NK6-AP 0.5 mg/ml, MTG 1 U/ml, 10 mM Tris-HCl pH 8, overnight 4° C.): served as substrates of MTG; also recorded: recognizable as a substrate of MTG
Fluorescence intensity of MTG lane compared with GTG lane (MTG [2]): higher fluorescence intensity

— patent US20110184147A1, “ENZYME SUBSTRATE FOR LABELING OF PROTEIN” (priority 2008, published 2011)
